In patent US10537610B1, “Peptide for inhibition of cancer” (priority 2018, dated 2020):
Non-standard residues stand in square brackets, D forms with d. Residues, ends and D or L forms follow the SMILES beside them.

Legend:
Assay type in all cases: cell-based, human
JAM-A mRNA = experiment: RT-PCR of JAM-A mRNA in HMEC-1 cells; conditions: Tβ4 200 nM or TGF-β1 10 ng/mL
[1] = system: MCF-10A cells across HMEC-1 monolayer; experiment: Transmigration (TEM) of MCF-10A cells across the endothelial monolayer
Description: (§1) The peptides were synthesized and purified by LifeTein, LLC (Somerset, N.J., USA) with the purity of not less than 95% using PeptideSyn™ technology that incorporates solid phase fluorenylmethyloxycarbonyl (Fmoc) chemistry. The cells were treated with the peptide P4D for 0, 1, 5, or 24 hours at a concentration of 500 μM. The cells treated with the Scrambled peptide P4D (Scr; 500 μM; 0, 1, 5, or 24 hours incubation time) were used as a negative control. In order to provide the positive control of the junctions tightening for impedance-based measurements of endothelial permeability, the cells were incubated with the potent activator of TJ assembly, forskolin (FSK; BioShop, Burlington, ON, Canada), for 24 hours at a concentration of 10 μM.
HMEC-1 endothelial cells were cultured in fibronectin-coated Transwell units with polycarbonate filter and 8 μm pores (Costar, Corning, N.Y., USA) in 24-well plates for 2 days at 37° C. to form a confluent monolayer. […]
At the end of the transmigration assay, non-migrated cells were gently wiped out from the inner surface of the membrane with cosmetic cotton swab. […] The migrated cells (five randomly chosen fields of each well) were counted using the Cell Counter tool of the ImageJ software. […]

[2] = system: breast cancer cells (MCF-7, MDA-MB-231) across HMEC-1 monolayer; experiment: Transmigration (TEM) of breast cancer cells across the endothelial monolayer
Description: as §1
HMEC-1 endothelial cells were cultured in fibronectin-coated Transwell units with polycarbonate filter and 8 μm pores (Costar, Corning, N.Y., USA) in 24-well plates for 2 days at 37° C. to form a confluent monolayer. Human breast cancer (MCF-7, MDA-MB-231) or non-tumorigenic (MCF-10A) human breast cells were starved overnight and labeled with the green fluorescent marker CellTracker Green CMFDA Dye (Molecular Probes, Eugene, Oreg., USA). An aliquot (1×10^5/well) of fluorescent breast cancer cells in serum-free medium was added in the top of the Transwell chamber, whereas the conditioned medium was used as a chemoattractant in the lower compartment. Non-tumorigenic human breast cell line MCF-10A was used as control. The wells containing the serum-free medium in the lower compartment were used to estimate the background migration. The breast cancer cells were allowed to migrate across the endothelial monolayer for 6 hours in a humidified incubator (temperature of 37° C. and 5% CO2 atmosphere) with or without the previously specified factors or with their combinations.
At the end of the transmigration assay, non-migrated cells were gently wiped out from the inner surface of the membrane with cosmetic cotton swab. The assay was documented at 200× magnification (10× eyepiece and 20× objective) with fluorescent inverted microscope Axio Vert.A1 (Zeiss, Oberkochen, Germany) and high-performance CMOS 2.3-MP AxioCam 702 mono digital camera (Zeiss) controlled by ZEN software, version 2.3 (Zeiss). The migrated cells (five randomly chosen fields of each well) were counted using the Cell Counter tool of the ImageJ software. Cell migration towards serum-free medium was treated as background and subtracted from the corresponding numbers of cells migrated towards conditioned medium.

JAM-A (CD321) = experiment: Flow cytometry of JAM-A (CD321) on the surface of HMEC-1 cells; conditions: Tβ4 200 nM, TGF-β1 10 ng/ml or TNF-α 10 ng/mL, 24 hours
Text: For the detection of JAM-A surface expression the cells were labeled with FITC anti-human CD321 (F11R) Mouse IgG1 Antibody (BioLegend, San Diego, Calif., USA) or with the FITC Mouse IgG1 Isotype Control Antibody (BioLegend) for the negative control. Labeled cells were washed to remove unbound antibodies, harvested with ice cold EDTA/PBS, fixed with BD CellFix (Becton Dickinson. Franklin Lakes, N.J., USA) and subsequently analyzed by FACS Canto II flow cytometer (Becton Dickinson). Upon excitation at 488 nm with an argon laser the emission of the fluorescence was recorded through selective band pass filter at 517 nm. Data were recorded with DIVA software, version 6.0 (Becton Dickinson) and subsequently analyzed using FCSalyzer software, version 0.9.14-alpha (https://sourceforge.net/projects/fcsalyzer/).

[3] = system: HMEC-1 endothelial monolayer; experiment: Macromolecular permeability of endothelial monolayer (FITC-dextran tracer assay)
Description: Macromolecular permeability of endothelial monolayer was analyzed by macromolecular tracer assay. HMEC-1 cells were grown in Transwell inserts with polyethylene terephthalate (PET) filters and 0.4-μm pores (Falcon, cat. #353095) in 24-well plates (Falcon, cat. #351147) at 1.5×10^5 cells/insert and immediately treated with P4D peptide (P4D) or with Scrambled P4D peptide (Scr) at a concentration of 500 μM (the samples indicated as 0 hours of incubation). Non-treated cells served as a control sample (Ctrl). Moreover, HMEC-1 cells were treated with P4D peptide at the following periods of time after seeding: 1 hour, 5 hours and 24 hours. One hour after the last treatment with P4D (24 hours) FITC-dextran with a molecular weight of 40 kDa was added into the inserts and the culture medium from the wells was replaced with PBS. After 1 hour incubation in darkness in a humidified incubator with the temperature of 37° C. and 5% CO2 atmosphere, the PBS from the wells (outside the inserts) was transferred into the wells of a black 96-well plate and the fluorescence was measured using the Wallac 1420 VICTOR2 Multilabel Counter (PerkinElmer, Waltham, Mass., USA) at 492 nm of excitation and 517 nm of emission wavelengths.

[4] = system: MCF-10A cells on HMEC-1 cells; experiment: Adhesion of non-tumorigenic MCF-10A cells to endothelial monolayer under static conditions; conditions: P4D 500 μM; TNF/IFN-treated HMEC-1
Description: as §1
Adhesion of human breast cancer (MCF-7, MDA-MB-231) or non-tumorigenic (MCF-10A) human breast cells to HMEC-1 cells was performed in 24-well plates. HMEC-1 cells were seeded to the bottom of the fibronectin-coated wells 2 days before the assay to form the monolayer and subjected to a suitable treatment. Breast cancer or non-tumorigenic cells were starved overnight and on the day of the assay were labeled with CellTracker Green CMFDA Dye for 30 minutes. […] The adherent cells were lysed by 2% SDS and the fluorescence was measured using the Wallac 1420 VICTOR2 Multilabel Counter (PerkinElmer) at 492 nm of excitation and 517 nm of emission wavelengths.

In the case of “Thymosin β4 (SDKPDMAEIEKFDKSKLKKTETQEKNPLPSKETIEQEKQAGES; not fully specified; Thymosin beta-4; UniProt P62328 2-44, looked up) [Tβ4]”, the “JAM-A expression on mRNA level” value (JAM-A mRNA) is reported as “no observed changes of JAM-A expression on mRNA level”, the “TEM of MCF-10A cells, effect of Tβ4” value ([1]; Tβ4 200 nM, 24 hours, in the presence of the Scr peptide) is reported as “significantly elevated the TEM of MCF-10A cells” and the “transmigration of MCF-7 and MDA-MB-231 across HMEC-1 monolayer, effect of Tβ4” value ([2]; Tβ4 200 nM, 24 hours, vs. CTRL (non-treated) cells) is reported as “slightly stimulated”. For the same molecule, the “JAM-A (CD321) level on the cell surface” value (JAM-A (CD321)) was “slightly decreased JAM-A level on the membrane of HMEC-1 cells”.

CC(C)[C@H](NC(=O)[C@H](CO)NC(=O)[C@H](N)CCCCN)C(=O)N[C@H](C(=O)N[C@H](CCCNC(=N)N)C(=O)N[C@@H](CCC(=O)O)C(=O)N[C@@H](CC(=O)O)C(=O)N[C@H](C(=O)NCC(=O)N[C@H](C(=O)N[C@@H](Cc1ccc(O)cc1)C(=O)N[C@H](C(=O)N[C@@H](CS)C(N)=O)[C@@H](C)O)[C@@H](C)O)[C@@H](C)O)[C@@H](C)O [Peptide P4D, NH2-(dK)-SVT-(dR)-EDTGTYTC-CONH2] (H-[dK]SVT[dR]EDTGTYTC-NH2) was tested, and the “transmigration of MCF-10A cells across cytokine-treated endothelium” value ([1]; P4D 500 μM, TNF/IFN-treated HMEC-1) was “markedly inhibited”, the “effect on preexisting tight junctions (FITC-dextran flux)” value ([3]; P4D 500 μM applied 1, 5 or 24 hours after seeding) was “did not disrupt the preexisting ones” and the “transendothelial flux of 40-kDa FITC-dextran” value ([3]; P4D 500 μM applied immediately after the cells were seeded (0 hours)) was “elevated”. The “transmigration of breast cancer cells across cytokine-activated endothelial monolayer” value ([2]; P4D 500 μM, HMEC-1 preincubated with TNF/IFN) was “hindered”, the “Tβ4-activated TEM” value ([2]; P4D 500 μM, HMEC-1 preincubated with Tβ4 200 nM for 24 hours, all tested MECs (MCF-7, MDA-MB-231, MCF-10A)) was “abrogated the Tβ4-activated TEM” and the “degree of TEM inhibition, MCF-7 cells compared with other MECs” value ([2]; P4D 500 μM, inflamed endothelium) was “highest degree of TEM inhibition”. For the same molecule, the “adhesion of MCF-10A cells to cytokine-treated endothelium” value [4] was “markedly inhibited”.
